Results: publication PMC5963734 (Neuron, 2018)

System: PSD-95 - α-actinin interaction
Conditions: acute forebrain slices, 100 μM NMDA for 5 min; Figure 7

In the case of CN[C@H](CC(=O)O)C(=O)O [NMDA], the “co-IP of CaM with PSD-95 after NMDA” value is reported as “strongly increased” and the “co-IP of α-actinin with PSD-95 after NMDA” value is reported as “nearly abolished”.
